Results published in article PMC9405102, “Targeted Modification and Structure-Activity Study of GL-29, an Analogue of the Antimicrobial Peptide Palustrin-2ISb” (Antibiotics, 2022).
Converted amounts (≈) assume the structure as drawn. Like-named read-outs stand apart in the source and are kept apart here. Where a SMILES comes first, the peptide text is derived from it. Where no end group is shown, it is not given here.

What was measured:
[1] = test system: P. aeruginosa (ATCC CRM 9027); format: cell-based, Pseudomonas aeruginosa
Protocol: (§1) The antimicrobial activity of the peptides was determined through the minimum inhibitory concentrations (MICs) and the minimum bactericidal concentration (MBCs) using the broth-dilution method in a 96-well plate, as described in the previous study. Six bacteria, including the Gram-positive bacteria, S. aureus (ATCC CRM 6538), MRSA (ATCC CRM 12493) and E. faecalis (NCTC 12697), the Gram-negative bacteria, E. coli (ATCC CRM 8739), K. pneumoniae (ATCC CRM 43816) and P. aeruginosa (ATCC CRM 9027), the yeast, C. albicans (ATCC CRM 10231) and clinical isolates, S. aureus (B042 V2E1 A), MRSA (B038 V1S1 A), E. coli (ATCC BAA-2340) and K. pneumoniae (ATCC BAA-1705) were used in these assays to evaluate the antimicrobial potency of the two peptides by determining their MICs and MBCs. All bacteria were cultured in MHB and the yeast, C. albicans was cultured in YPD broth overnight. Then, the microorganisms were sub-cultured and diluted to the final concentration of 2 × 10^5 CFU/mL to 5 × 10^5 CFU/mL. The Norfloxacin and amphotericin B were used as positive controls for the bacteria and yeast, respectively. The assay was repeated three times, with five replicates at each time.

[2] = test system: C. albicans (ATCC CRM 10231); format: cell-based, Candida albicans
Protocol: as §1

[3] = test system: S. aureus (ATCC CRM 6538); format: cell-based, Staphylococcus aureus
Protocol: as §1

[4] = test system: S. aureus (B042 V2E1 A); format: cell-based, Staphylococcus aureus
Protocol: as §1

[5] = test system: MRSA (ATCC CRM 12493); format: cell-based, methicillin-resistant S. aureus
Protocol: as §1

[6] = test system: MRSA (B038 V1S1 A); format: cell-based, methicillin-resistant S. aureus
Protocol: as §1

[7] = test system: E. coli (ATCC BAA-2340); format: cell-based, Escherichia coli
Protocol: as §1

[8] = test system: E. coli (ATCC CRM 8739); format: cell-based, Escherichia coli
Protocol: as §1

[9] = test system: K. pneumoniae (ATCC BAA-1705); format: cell-based, Klebsiella pneumoniae
Protocol: as §1

[10] = test system: K. pneumoniae (ATCC CRM 43816); format: cell-based, Klebsiella pneumoniae
Protocol: as §1

[11] = test system: S. aureus (ATCC CRM 6538); format: cell-based, Staphylococcus aureus; remark: listed apart in the source
Protocol: (§2) The MBIC and MBEC assays were performed to measure the inhibition and eradication of bacterial biofilm in the presence of different concentrations of peptides. Gram-positive bacteria were inoculated in Luria–Bertani (LB) broth at 37 °C overnight whereas Gram-negative bacteria were inoculated in tryptic soy broth (TSB), and then sub-cultured until reaching the logarithmic growth phase by measuring the OD values at a wavelength of 550nm. For the MBIC assay, 99 µL of diluted bacterial suspension (5 × 10^5 CFU/mL) was mixed with 1 µL of prepared peptide solutions in the wells of a round-bottomed 96-well plate, achieving the final concentrations from 512 to 1 µM, and then incubated at 37 °C for 24 h in a shaking incubator at 200 revolutions per minute (rpm). After this, the plate was washed twice by PBS and fixed with methanol for 30 min. For MBEC assay, 100 µL of diluted bacterial suspension (5 × 10^5 CFU/mL) was seeded into a round-bottomed 96-well plate and incubated at 37 °C for 24 h in a shaking incubator at 200 rpm to obtain mature biofilm. After this, plates were washed twice by PBS and incubated with different concentrations of peptide solution from 512 to 1 µM at 37 °C for 24 h. Afterwards, the plate was washed twice with PBS and fixed with methanol for 30 min. Then, both MBIC and MBEC plates were stained by 130 μL of 0.1% (g/v) crystal violet solutions for 30 min and washed with PBS until no apparent staining was observed. Evaporating crystal violet stains were dissolved by 33% (v/v) acetic acid, and the absorbance values were measured by a Synergy HT Microplate Reader (BioTek, Minneapolis, MN, USA) set to 595 nm. The minimum concentration that inhibited the formation of biofilm was defined when compared to the negative control group, as the MBIC. The minimum concentration that eradicated the biofilm was defined, when compared to the negative control group, as the MBEC. The biofilm assays were performed in triplicate.

[12] = test system: E. faecalis (NCTC 12697); format: cell-based, Enterococcus faecalis
Protocol: as §2

[13] = test system: MRSA (ATCC CRM 12493); format: cell-based, methicillin-resistant S. aureus; remark: listed apart in the source
Protocol: as §2

[14] = test system: E. coli (ATCC CRM 8739); format: cell-based, Escherichia coli; remark: listed apart in the source
Protocol: as §2

[15] = test system: K. pneumoniae (ATCC CRM 43816); format: cell-based, Klebsiella pneumoniae; remark: listed apart in the source
Protocol: as §2

[16] = test system: P. aeruginosa (ATCC CRM 9027); format: cell-based, Pseudomonas aeruginosa; remark: listed apart in the source
Protocol: as §2

[17] = clinical isolated strain S. aureus (B042 V2E1 A)
[18] = clinical isolated strain MRSA (B038 V1S1 A)
[19] = KPC-producing resistant strain E. coli (ATCC BAA-2340)
[20] = KPC-producing resistant strain K. pneumoniae (ATCC BAA-1705)

CC[C@H](C)[C@H](NC(=O)[C@H](CCCCN)NC(=O)[C@@H](NC(=O)[C@H](CO)NC(=O)[C@H](CC(N)=O)NC(=O)[C@H](Cc1c[nH]c2ccccc12)NC(=O)[C@H](CC(C)C)NC(=O)CN)[C@@H](C)CC)C(=O)N[C@@H](C)C(=O)NCC(=O)N[C@@H](CCCCN)C(=O)N[C@@H](CCCCN)C(=O)N[C@@H](CC(C)C)C(=O)N[C@@H](Cc1ccccc1)C(=O)N[C@H](C(=O)N[C@@H](CC(N)=O)C(=O)N[C@H](C(=O)N[C@@H](CC(C)C)C(=O)N[C@@H](CC(=O)O)C(=O)N[C@@H](CCCCN)C(=O)N[C@H](C(=O)N[C@@H](CCCNC(=N)N)C(=O)N[C@H]1CSSC[C@@H](C(=O)O)NC(=O)CNC(=O)CNC(=O)[C@H](C)NC(=O)[C@H](C(C)C)NC(=O)[C@H](CCCCN)NC1=O)[C@@H](C)CC)C(C)C)C(C)C [GL-29] (HELM PEPTIDE1{G.L.W.N.S.I.K.I.A.G.K.K.L.F.V.N.V.L.D.K.I.R.C.K.V.A.G.G.C}$PEPTIDE1,PEPTIDE1,23:R3-29:R3$$$V2.0; N-terminus and C-terminus assumed; bridges inferred)
MBC ([1]; ATCC CRM 9027): 16 µM (≈ 50.1 µg/mL)
MIC ([1]; ATCC CRM 9027): 16 µM (≈ 50.1 µg/mL)
MBC ([2]; ATCC CRM 10231): 256 µM (≈ 801 µg/mL)
MIC ([2]; ATCC CRM 10231): 128 µM (≈ 401 µg/mL)
MBC ([3]; ATCC CRM 6538): 4 µM (≈ 12.5 µg/mL)
MIC ([3]; ATCC CRM 6538): 4 µM (≈ 12.5 µg/mL)
MBC ([4]; B042 V2E1 A): 4 µM (≈ 12.5 µg/mL)
MIC ([4]; B042 V2E1 A): 4 µM (≈ 12.5 µg/mL)
MBC ([5]; ATCC CRM 12493): 8 µM (≈ 25 µg/mL)
MIC ([5]; ATCC CRM 12493): 8 µM (≈ 25 µg/mL)
MBC ([6]; B038 V1S1 A): 2 µM (≈ 6.26 µg/mL)
MIC ([6]; B038 V1S1 A): 2 µM (≈ 6.26 µg/mL)
MBC ([7]; ATCC BAA-2340): 4 µM (≈ 12.5 µg/mL)
MIC ([7]; ATCC BAA-2340): 2 µM (≈ 6.26 µg/mL)
MBC ([8]; ATCC CRM 8739): 4 µM (≈ 12.5 µg/mL)
MIC ([8]; ATCC CRM 8739): 2 µM (≈ 6.26 µg/mL)
MBC ([9]; ATCC BAA-1705): 4 µM (≈ 12.5 µg/mL)
MIC ([9]; ATCC BAA-1705): 4 µM (≈ 12.5 µg/mL)
MBC ([10]; ATCC CRM 43816): 8 µM (≈ 25 µg/mL)
MIC ([10]; ATCC CRM 43816): 8 µM (≈ 25 µg/mL)
MBEC ([11]; ATCC CRM 6538, 24 h): 128 µM
MBIC ([11]; ATCC CRM 6538, 24 h): 4 µM
MBEC ([12]; NCTC 12697, 24 h): > 512 µM
MBIC ([12]; NCTC 12697, 24 h): 16 µM
MBEC ([13]; ATCC CRM 12493, 24 h): 256 µM
MBIC ([13]; ATCC CRM 12493, 24 h): 8 µM
MBEC ([14]; ATCC CRM 8739, 24 h): 128 µM
MBIC ([14]; ATCC CRM 8739, 24 h): 4 µM
MBEC ([15]; ATCC CRM 43816, 24 h): > 512 µM
MBIC ([15]; ATCC CRM 43816, 24 h): 16 µM
MBEC ([16]; ATCC CRM 9027, 24 h): > 512 µM
MBIC ([16]; ATCC CRM 9027, 24 h): 64 µM

GLWNSIKIA-NH2 [GL-9, GLWNSIKIA-NH2]
MBC ([1]; P. aeruginosa (ATCC CRM 9027)): >512 µM
MIC ([1]; P. aeruginosa (ATCC CRM 9027)): >512 µM
MBC ([2]; C. albicans (ATCC CRM 10231)): >512 µM
MIC ([2]; C. albicans (ATCC CRM 10231)): >512 µM
MBC ([3]; S. aureus (ATCC CRM 6538)): 512 µM
MIC ([3]; S. aureus (ATCC CRM 6538)): 512 µM
MBC [4, 17]: >512 µM
MIC [4, 17]: >512 µM
MBC ([5]; MRSA (ATCC CRM 12493)): >512 µM
MIC ([5]; MRSA (ATCC CRM 12493)): >512 µM
MBC [6, 18]: >512 µM
MIC [6, 18]: >512 µM
MBC [7, 19]: >512 µM
MIC [7, 19]: >512 µM
MBC ([8]; E. coli (ATCC CRM 8739)): > 512 µM
MIC ([8]; E. coli (ATCC CRM 8739)): 512 µM
MBC [9, 20]: >512 µM
MIC [9, 20]: >512 µM
MBC ([10]; K. pneumoniae (ATCC CRM 43816)): >512 µM
MIC ([10]; K. pneumoniae (ATCC CRM 43816)): >512 µM
MBEC ([11]; biofilm eradication, S. aureus (ATCC CRM 6538)): >512 µM
MBIC ([11]; biofilm formation, S. aureus (ATCC CRM 6538)): >512 µM
MBEC ([12]; biofilm eradication, E. faecalis (NCTC 12697)): >512 µM
MBIC ([12]; biofilm formation, E. faecalis (NCTC 12697)): >512 µM
MBEC ([13]; biofilm eradication, MRSA (ATCC CRM 12493)): >512 µM
MBIC ([13]; biofilm formation, MRSA (ATCC CRM 12493)): >512 µM
MBEC ([14]; biofilm eradication, E. coli (ATCC CRM 8739)): 512/>512 μM
MBIC ([14]; biofilm formation, E. coli (ATCC CRM 8739)): 512/>512 μM
MBEC ([15]; biofilm eradication, K. pneumoniae (ATCC CRM 43816)): >512 µM
MBIC ([15]; biofilm formation, K. pneumoniae (ATCC CRM 43816)): >512 µM
MBEC ([16]; biofilm eradication, P. aeruginosa (ATCC CRM 9027)): >512 µM
MBIC ([16]; biofilm formation, P. aeruginosa (ATCC CRM 9027)): >512 µM

GLWNSIKIAGKKLFVNVLDKIR-NH2 [GL-22]
MBC ([1]; ATCC CRM 9027): 32 µM
MIC ([1]; ATCC CRM 9027): 32 µM
MBC ([2]; ATCC CRM 10231): 256 µM
MIC ([2]; ATCC CRM 10231): 128 µM
MBC ([3]; ATCC CRM 6538): 4 µM
MIC ([3]; ATCC CRM 6538): 4 µM
MBC ([4]; B042 V2E1 A): 64 µM
MIC ([4]; B042 V2E1 A): 32 µM
MBC ([5]; ATCC CRM 12493): 8 µM
MIC ([5]; ATCC CRM 12493): 8 µM
MBC ([6]; B038 V1S1 A): 4 µM
MIC ([6]; B038 V1S1 A): 4 µM
MBC ([7]; ATCC BAA-2340): 4 µM
MIC ([7]; ATCC BAA-2340): 2 µM
MBC ([8]; ATCC CRM 8739): 4 µM
MIC ([8]; ATCC CRM 8739): 4 µM
MBC ([9]; ATCC BAA-1705): 4 µM
MIC ([9]; ATCC BAA-1705): 4 µM
MBC ([10]; ATCC CRM 43816): 4 µM
MIC ([10]; ATCC CRM 43816): 4 µM
MBEC ([11]; ATCC CRM 6538, 24 h): > 512 µM
MBIC ([11]; ATCC CRM 6538, 24 h): 8 µM
MBEC ([12]; NCTC 12697, 24 h): > 512 µM
MBIC ([12]; NCTC 12697, 24 h): 32 µM
MBEC ([13]; ATCC CRM 12493, 24 h): > 512 µM
MBIC ([13]; ATCC CRM 12493, 24 h): 8 µM
MBEC ([14]; ATCC CRM 8739, 24 h): > 512 µM
MBIC ([14]; ATCC CRM 8739, 24 h): 16 µM
MBEC ([15]; ATCC CRM 43816, 24 h): > 512 µM
MBIC ([15]; ATCC CRM 43816, 24 h): 16 µM
MBEC ([16]; ATCC CRM 9027, 24 h): > 512 µM
MBIC ([16]; ATCC CRM 9027, 24 h): 128 µM
